Laboratory results: US10730850B2, “Pyridinylmethyl carbamimidoylcarbamate derivatives and their use as AOC3 inhibitors” (Boehringer Ingelheim International GmbH, priority 2016, dated 2020)

Target: AOC3 (Homo sapiens (Human), UniProt Q16853)
Assay: MAO-Glo AOC3 assay (recombinant CHO cells overexpressing AOC3)
Type: biochemical
Settings: Table 1, read-out: AOC3 IC50
Source text: The MAO-Glo™ Assay (commercial available from PROMEGA, # V1402) provides a sensitive method for the measurement of monoamine oxidase (MAO) activity (Valley, M. P. et al., 2006, Anal. Biochem. 359: 238-246) from a variety of tissues, biofluids or recombinant expressed or purified enzymes. As substrate a derivate of the beetle luciferin ((4S)-4,5-dihydro-2-(6-hydroxybenzothiazolyl)-4-thiazole-carboxylic acid) is used, which is oxidized at a primary amine moiety. After a spontaneous elimination and a catalyzed esterase reaction, the turnover of the luciferine by the luciferase is recorded as a signal of AOC3 activity.
An aliquot of 3 μL of the compound dilution is added to a 384 well plate (Optiplate, PS, flat bottom, white, PERKIN ELMER, #6007290) with a final DMSO concentration of 6.6%. Recombinant CHO cells, overexpressing the human (1500 cells/well), mouse (1000 cells/well) or rat (500 cells/well) AOC3 enzyme are diluted in reaction buffer and added in a volume of 15 μL to the wells. After incubation for 20 minutes at 37° C., 2 μL of MAO substrate (dissolved in DMSO at 16 mM, adjusted to assay concentration in reaction buffer to a final assay concentration of 20 μM) is added and further incubated for 60 minutes at 37° C. The turnover of the substrate is determined by the addition of 20 μL of the detection-mix which was generated by the addition of reconstitution buffer with esterase (PROMEGA, # V1402) to the luciferine detection reagent (PROMEGA, # V1402). After an incubation period of 20 minutes, the luminescent signal is measured with Envision 2104 Multilabel Reader (PERKIN ELMER).
In the following table the activity expressed as IC50 (nM) of compounds according to the invention is presented wherein the IC50 values are determined in the MAO-Glo™ AOC3 assay as described hereinbefore. The term “Example” refers to the example numbers according to the following experimental section.

Chain of AOC3 (Q16853 whole entry): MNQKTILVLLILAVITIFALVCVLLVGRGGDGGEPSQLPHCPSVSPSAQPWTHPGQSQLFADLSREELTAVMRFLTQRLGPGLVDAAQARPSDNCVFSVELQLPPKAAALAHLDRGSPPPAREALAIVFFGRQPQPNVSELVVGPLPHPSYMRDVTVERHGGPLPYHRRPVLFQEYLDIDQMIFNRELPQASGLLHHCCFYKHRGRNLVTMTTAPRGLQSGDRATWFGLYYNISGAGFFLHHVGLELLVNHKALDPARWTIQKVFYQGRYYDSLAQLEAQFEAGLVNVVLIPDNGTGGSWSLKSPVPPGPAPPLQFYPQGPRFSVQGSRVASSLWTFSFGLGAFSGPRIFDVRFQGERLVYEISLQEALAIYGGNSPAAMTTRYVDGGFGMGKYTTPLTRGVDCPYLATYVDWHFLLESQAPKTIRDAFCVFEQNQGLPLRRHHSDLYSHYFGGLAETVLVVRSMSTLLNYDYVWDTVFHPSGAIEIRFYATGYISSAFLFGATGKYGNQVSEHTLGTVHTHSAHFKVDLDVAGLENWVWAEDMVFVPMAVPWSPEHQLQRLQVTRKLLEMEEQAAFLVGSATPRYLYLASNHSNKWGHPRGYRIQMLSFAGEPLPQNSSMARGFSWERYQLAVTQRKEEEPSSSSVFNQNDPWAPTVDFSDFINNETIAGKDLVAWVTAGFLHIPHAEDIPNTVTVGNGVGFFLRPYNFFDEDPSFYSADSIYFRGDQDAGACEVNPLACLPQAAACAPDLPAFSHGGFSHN

| IC50 | Structure (SMILES) |
| --- | --- |
| 98 nM | N=C(N)NC(=O)OCc1ccnc(N2CC(c3ccccc3)C2)c1F [Example 1.001] |
| 172 nM | N=C(N)NC(=O)OCc1ccnc(N2CC(c3ccccn3)C2)c1F [Example 1.002] |
| 16 nM | N#Cc1ccc(C2CN(c3cccc(COC(=O)NC(=N)N)n3)C2)cc1 [Example 1.003] |
| 38 nM | N=C(N)NC(=O)OCc1ccnc(N2CC=C(c3ncco3)CC2)c1F [Example 1.004] |
| 17 nM | N=C(N)NC(=O)OCc1ccnc(N2CC=C(c3ccccc3)CC2)c1F [Example 1.005] |
| 18 nM | N=C(N)NC(=O)OCc1ccnc(N2CC=C(c3ccccn3)CC2)c1F [Example 1.006] |
| 96 nM | N=C(N)NC(=O)OCc1ccnc(N2CC=C(c3ncccn3)CC2)c1F [Example 1.007] |
| 15 nM | N=C(N)NC(=O)OCc1ccnc(N2CCC(c3ccccc3)CC2)c1F [Example 1.008] |
| 41 nM | N=C(N)NC(=O)OCc1ccnc(N2CCN(c3ccccc3)CC2)c1F [Example 1.009] |
| 62 nM | N=C(N)NC(=O)OCc1ccnc(N2CCN(c3ccccn3)CC2)c1F [Example 1.012] |
| 22 nM | N=C(N)NC(=O)OCc1ccnc(N2CCN(c3cccnn3)CC2)c1F [Example 1.013] |
| 41 nM | N=C(N)NC(=O)OCc1ccnc(N2CCN(c3ncccn3)CC2)c1F [Example 1.014] |
| 17 nM | Cc1cnc(C2=CCN(c3nccc(COC(=O)NC(=N)N)c3F)CC2)o1 [Example 1.015] |
| 17 nM | N=C(N)NC(=O)OCc1ccnc(N2CCN(c3ncncn3)CC2)c1F [Example 1.018] |
| 84 nM | Cc1cnc(C2CCN(c3nccc(COC(=O)NC(=N)N)c3F)CC2)o1 [Example 1.019] |
| 35 nM | N=C(N)NC(=O)OCc1ccnc(N2CCC(C3CCCCC3)CC2)c1F [Example 1.020] |
| 26 nM | N=C(N)NC(=O)OCc1ccnc(N2CCN(C3CCCC3)C(=O)C2)c1F [Example 1.021] |

| IC50 | Structure (SMILES) |
| --- | --- |
| 49 nM | N=C(N)NC(=O)OCc1ccnc(N2CCC(c3nccs3)CC2)c1F [Example 1.022] |
| 18 nM | N=C(N)NC(=O)OCc1ccnc(N2CCN(c3nccs3)CC2)c1F [Example 1.024] |
| 92 nM | N=C(N)NC(=O)OCc1ccnc(N2CCC(N3CCOCC3)CC2)c1F [Example 1.025] |
| 111 nM | N=C(N)NC(=O)OCc1ccnc(N2CCC(N3CCOC3=O)CC2)c1F [Example 1.026] |
| 10 nM | Cc1cccc(C2CCN(c3nccc(COC(=O)NC(=N)N)c3F)CC2)c1 [Example 1.028] |
| 9 nM | Cc1ccc(C2CCN(c3nccc(COC(=O)NC(=N)N)c3F)CC2)cc1 [Example 1.029] |
| 23 nM | Cc1cnc(C2=CCN(c3nccc(COC(=O)NC(=N)N)c3F)CC2)nc1 [Example 1.030] |
| 11 nM | Cc1ccc(N2CCN(c3nccc(COC(=O)NC(=N)N)c3F)CC2)cc1 [Example 1.032] |
| 58 nM | Cc1ccccc1N1CCN(c2nccc(COC(=O)NC(=N)N)c2F)CC1 [Example 1.034] |
| 14 nM | CC1CN(c2nccc(COC(=O)NC(=N)N)c2F)CCN1c1ccccc1 (centres unmarked) [Example 1.035] |
| 14 nM | Cc1ccc(N2CCN(c3nccc(COC(=O)NC(=N)N)c3F)CC2)nc1 [Example 1.038] |
| 28 nM | N=C(N)NC(=O)OCc1ccnc(N2CC=C(c3ncc(F)cn3)CC2)c1F [Example 1.042] |
| 13 nM | N=C(N)NC(=O)OCc1ccnc(N2CCN(c3ccccc3F)CC2)c1F [Example 1.043] |
| 24 nM | N=C(N)NC(=O)OCc1ccnc(N2CCN(c3ncc(F)cn3)CC2)c1F [Example 1.045] |
| 128 nM | N=C(N)NC(=O)OCc1ccnc(N2CCC(N3CCCCC3=O)CC2)c1F [Example 1.046] |
| 22 nM | N=C(N)NC(=O)OCc1ccnc(N2CCC3(C=Cc4ccccc43)CC2)c1F [Example 1.049] |
| 83 nM | N=C(N)NC(=O)OCc1ccnc(N2CCC3(CCc4ccccc43)CC2)c1F [Example 1.053] |

| Structure (SMILES) | IC50 |
| --- | --- |
| N=C(N)NC(=O)OCc1ccnc(N2C3CCC2CC(c2ccccc2)C3)c1F (centres unmarked) [Example 1.052] | 84 nM |
